# Results taken from patent US4228187A, “Alkyl and cycloalkylthiophenylalkylaminoalkanols, their salts and the preparation thereof” (priority 1973, dated 1980).
# Entries after “also recorded” stand apart in the source; their conditions may differ. Like-named read-outs stand apart in the source and are kept apart here.
# Columns and labels:
# [1] = tested on: occluding thrombosis of the femoral artery; experiment: Prevention of arterial thrombosis in dogs; assay type: in vivo, dog; conditions: for n dogs with occluding thrombosis: controls 10 of 16, * α = 0.05; for incidence of occluding thrombosis of the femoral artery (in words): suloctidil 5 times 5 mg/kg i.m., acetylsalicylic acid 5 times 100 mg/kg p.o.
# Procedure: In animals, 1-(4-isopropylthiophenyl)-2-n-octylaminopropanol reduces thromboformation in arteries and veins.
# Thrombosis was induced in the femoral
# artery of anesthetized dogs by a 30 min perfusions, in a
# catheterized area of the vessel, of a solution of pronase.
# Drugs administrations were made at 24 h intervals, for 5 days
# the last dosage being given 30 min before anesthesia.
# lipoproteinlipases = experiment: Inhibitory effect on lipoproteinlipases; assay type: biochemical
# [2] = Prothrombine levels in patients under oral anti-coagulants therapy; assay type: in vivo, human; conditions: 900 mg daily with long-term oral anti-coagulants
# Procedure: (§1) After a single oral intake of 200 mg the effect lasts for at least 6 h. Repeated administration of 1-(4-isopropylthiophenyl)-2-n-octylaminopropanol seems to optimalize its anti-platelet activity. […] Moreover, investigations on its mode of action indicate that the mechanism involved are quantitatively and qualitatively different from these of the other known anti-platelet agents.
# guinea pig atria's = experiment: Protective activity against anoxia (guinea pig atria); set-up: key: scale: + = 10 to 20% increase in survival time; conditions: increase in survival time
# Excerpt: (5) guinea pig atria's;
# + = increase in survival time of 10 to 20%
# [3] = tested on: vasoconstrictions induced by norepinephrine and angiotensine in the femoral circulation; experiment: Inhibition of vasoconstrictions in the femoral circulation of dogs; set-up: species or system dog; conditions: in vivo, FIG. 1: i.a. 10 μg/kg/min, listed as suloctidil
# Excerpt: The vasoconstrictions are induced by i.a. norepinephrine (n=10) or angiotensine (n=8) during solvent (C) or drug (T) infusion.
# Vertical bars are standard errors of the means and * or *** indicate statistically significant differences from the corresponding control values at the thresholds α=0.05 and 0.001 respectively.
# [4] = tested on: catecholamines and methylxanthine induced lipolysis; experiment: Antilipolytic activity in vitro in rat epididymal fat; assay type: cell-based
# platelet functions = experiment: Platelet antiaggregating properties in vitro and in vivo
# [5] = Blood viscosity and plasma fibrinogen in geriatric patients (pilot studies); assay type: in vivo, human; conditions: long-term treatment
# [6] = tested on: experimental type II hyperlipidemia; experiment: Experimental type II hyperlipidemia in monkeys; assay type: in vivo, monkey
# [7] = tested on: vascular contractile cell; experiment: Vascular antispasmodic activity: inhibition of induced vasoconstrictions in vitro and in vivo
# Ac.chol. = experiment: Antispasmodic activity, Ac.chol.
# cholesterol biosynthesis = experiment: Inhibition of cholesterol biosynthesis in vitro (rat liver); assay type: cell-based; conditions: for inhibition at 100 µM / inhibition at 10 µM: Rattus norvegicus, rat liver, mean; for inhibition at 100 µM: 10^-4 M; for inhibition at 10 µM: 10^-5 M; for inhibition of cholesterol biosynthesis (in words): in vitro
# Excerpt: |Inhibition of cholesterol biosynthesis in vitro (rat liver). In- |hibitory effect of suloctidil and clofibrate on the incorpora- |tion of 1-^14 [NT] and 2-^14 C-mevalonate (MVA). |are mean values and range, expressed in % of inhibition. Unless |otherwise stated, n = 3.
# [8] = tested on: peripheral vasodilatatory activity; experiment: Vasodilatory effect after intraarterial injection in dog; assay type: in vivo
# [9] = tested on: spontaneously hypertensive rat; experiment: Antihypertensive activity (spontaneously hypertensive rat); assay type: in vivo; conditions: 15 mg/kg per os
# Procedure: (3) spontaneously hypertensive rat; 15 mg/kg per os;
# ± reduction of systolic pressure up to 10 mm of Hg
# + reduction of systolic pressure of 10 to 20 mm Hg
# ++ reduction of systolic pressure of at least 20 mm of Hg
# [10] = tested on: ADP, L-epinephrine, collagen and Thrombofax induced aggregation; experiment: Ex-vivo platelet aggregation after oral administration to healthy volunteers; set-up: species or system human
# Procedure: as §1
# BaCl2 = experiment: Antispasmodic activity, BaCl2
# [11] = tested on: peripheral and cerebral circulations; experiment: Blood flow in peripheral and cerebral circulations after i.v. or oral administration; assay type: in vivo; conditions: mice or dogs
# DL50 mouse p.o. = conditions: in vivo, po, limits of reliability (p : 0.95) in brackets
# Excerpt: (1) the limits of reliability (p : 0.95) are given in brackets.
# [12] = tested on: thrombosis of the hepatic veins; experiment: Prevention of deep veins thrombosis in rats; assay type: in vivo, rat; conditions: for n rats with score 2: control 1; for n rats with score 3: control 2; for n rats with score 1: control 12, * α = 0.05; for n rats with score 0: control 13, ** α = 0.01; for thrombosis of the hepatic veins (in words): rats fed hyperlipidemic diet 3 months, endotoxin
# Procedure: (see table VI given below).
# Thrombosis in the hepatic veins were in-
# duced in rats fed an hyperlipidemic diet for 3 months by i.v.
# injection of endotoxin (lipopolysaccharide B from Salmonella
# Sulcoctidil was administered into the diet. The importance of the
# thrombosis assessed by scoring the subsequent red
# hepatic infarcts according to their number and surface.
# Bleeding time in man = assay type: in vivo, human; conditions: repeated administration
# Procedure: as §1
# [13] = tested on: platelets emboli triggered by ADP; experiment: Platelets emboli triggered by ADP in mice or rats; assay type: in vivo
# Excerpt: Since platelet aggregation is considered to be of paramount importance in thrombus formation, this anti-platelet activity of 1-(4-isopropylthiophenyl)-2-n-octylaminopropanol (suloctidil) is likely to explain its anti-thrombotic properties.
# Hist. = experiment: Antispasmodic activity, Hist.
# [14] = AA, read-out: Inhibition of incorporation of 1-^14 C-acetate (AA)
# [15] = MVA, read-out: Inhibition of incorporation of 2-^14 C-mevalonate (MVA)
structure (smiles),measurement,setting,value
"CC(=O)Oc1ccccc1C(=O)O [Acetylsalicylic acid, reference compound]",n dogs with occluding thrombosis,"[1]; 5 × 100 mg/kg p.o., n = 10",1
same,incidence of occluding thrombosis of the femoral artery (in words),[1],also effective in these conditions
"CCCCCCCCNC(C)C(O)c1ccc(SC(C)C)cc1 (stereo not shown) [No 2, 1-(4-isopropylthiophenyl)-2-n-octylaminopropanol]",direct inhibitory effect on lipoproteinlipases,lipoproteinlipases,direct inhibitory effect on the activity of different lipoproteinlipases
same,prothrombine levels,[2],does not markedly decrease prothrombine levels
same,Protective activity against anoxia,guinea pig atria's,0
same,n dogs with occluding thrombosis,"[1]; 5 × 5 mg/kg i.m., n = 16",3
same,incidence of occluding thrombosis of the femoral artery (in words),[1],significantly lower
same,inhibition of vasoconstrictions in the femoral circulation,[3],potent inhibitor of vasoconstrictions; also recorded: more active than standard agents like papaverine and cinnarizine
same,antilipolytic activity,[4],potent antilipolytic activity
same,platelet antiaggregating properties,platelet functions,potent platelet antiaggregating properties
same,platelet antiaggregating properties,platelet functions; listed as suloctidil,platelet anti-aggregating properties
same,plasma fibrinogen levels,[5],parallel reduction of the plasma fibrinogen levels
same,reduction of blood hyperviscosity,[5]; therapeutic dosage regimen,about 10%
same,hypocholesterolemic and normolipoproteinemic effects,[6],"hypocholesterolemic and ""normolipoproteinemic"" effects observed in vivo"
same,vascular antispasmodic activity and vasodilating action,[7],potent vascular antispasmodic activity and vasodilating action
same,inhibition of vasoconstrictions,"[7]; in vitro and in vivo, calcium, norepinephrine, 5-hydroxytryptamine and angiotensine","inhibits, in vitro and in vivo, vasocontrictions induced by various agents like calcium, norepinephrine, 5-hydroxytryptamine and angiotensine"
same,"Antispasmodic activity CE 100, Ac.chol.",Ac.chol.,100 μ g γ 60 ml
same,inhibition at 100 µM,cholesterol biosynthesis; [14],49.4%
same,inhibition at 10 µM,cholesterol biosynthesis; [14],27.5%
same,inhibition at 100 µM,cholesterol biosynthesis; [15],25.9%
same,inhibition at 10 µM,cholesterol biosynthesis; [15],9.9%
same,inhibition of cholesterol biosynthesis (in words),cholesterol biosynthesis,strong inhibitor of cholesterol biosynthesis; also recorded: more specific than that of standard compounds like clofibrate
same,inhibition of cholesterol biosynthesis (in words),cholesterol biosynthesis; listed as suloctidil,markedly inhibits the biosynthesis of cholesterol
same,peripheral vasodilatatory activity compared with papaverine,[8],greater degree of activity than papaverine
same,Amplitude (maximum vasodilatory effect),[8]; 10 μg/kg,42 mm of Hg
same,Duration of effect,[8]; 10 μg/kg,226 s
same,Half-life (of vasodilatory effect),[8]; 10 μg/kg,1.57 min
same,Amplitude (maximum vasodilatory effect),[8]; 20 μg/kg,59 mm of Hg
same,Duration of effect,[8]; 20 μg/kg,299 s
same,Half-life (of vasodilatory effect),[8]; 20 μg/kg,2.32 min
same,Amplitude (maximum vasodilatory effect),[8]; 30 μg/kg,67 mm of Hg
same,Duration of effect,[8]; 30 μg/kg,390 s
same,Half-life (of vasodilatory effect),[8]; 30 μg/kg,2.63 min
same,Anti-hypertensive activity,[9],0
same,inhibition of induced platelet aggregation,"[10]; ex-vivo, single oral administration, 200 mg or more, healthy volunteers","strongly inhibits ADP, L-epinephrine, collagen and Thrombofax induced aggregation"
same,duration of anti-aggregating effect,[10]; single oral intake of 200 mg,at least 6 h
same,"Antispasmodic activity CE 100, BaCl2",BaCl2,100 μ g γ 60 ml
same,increase in blood flow in peripheral and cerebral circulations,[11],increase in blood flow in both peripheral and cerebral circulations
same,LD50,DL50 mouse p.o.,3700 mg/kg
same,n rats with score 2,[12]; 10 mg/kg/day in diet,0
same,n rats with score 3,[12]; 10 mg/kg/day in diet,0
same,n rats with score 1,[12]; 10 mg/kg/day in diet,4
same,n rats with score 0,[12]; 10 mg/kg/day in diet,25
same,n rats with score 2,[12]; 25 mg/kg/day in diet,0
same,n rats with score 3,[12]; 25 mg/kg/day in diet,0
same,n rats with score 1,[12]; 25 mg/kg/day in diet,5
same,n rats with score 0,[12]; 25 mg/kg/day in diet,23
same,thrombosis of the hepatic veins (in words),[12],protection is still conferred by a 10 mg/kg oral dose
same,thrombosis of the hepatic veins (in words),[12]; listed as suloctidil,markedly less frequent and less developped
same,bleeding time,Bleeding time in man,does not prolong bleeding time in man
same,activity compared with acetyl salicyclic acid,[13]; at the same dose,as active as acetyl salicyclic acid
same,formation of platelets emboli triggered by ADP,"[13]; oral, mice or rats",blocked or decreased the formation of platelets emboli triggered by ADP
same,"Antispasmodic activity CE 100, Hist.",Hist.,100 μ g γ 60 ml
CCCCCCCCNC(CC)C(O)c1ccc(SC(C)C)cc1 (stereo not shown) [No 8],Protective activity against anoxia,guinea pig atria's,0
same,"Antispasmodic activity CE 100, Ac.chol.",Ac.chol.,500 μ g γ 60 ml
same,Anti-hypertensive activity,[9],0
same,"Antispasmodic activity CE 100, BaCl2",BaCl2,100 μ g γ 60 ml
same,LD50,DL50 mouse p.o.,> 4000 mg/kg
same,"Antispasmodic activity CE 100, Hist.",Hist.,500 μ g γ 60 ml
"CCOC(=O)C(C)(C)Oc1ccc(Cl)cc1 [Clofibrate, reference compound]",inhibition at 100 µM,cholesterol biosynthesis; [14],47.4%
same,inhibition at 10 µM,cholesterol biosynthesis; [14],4.2%
CCCCCCCCNC(C)C(O)c1ccc(SC)cc1 (stereo not shown) [No 11],Protective activity against anoxia,guinea pig atria's,0
same,"Antispasmodic activity CE 100, Ac.chol.",Ac.chol.,200 μ g γ 60 ml
same,Anti-hypertensive activity,[9],++ (reduction of systolic pressure of at least 20 mm of Hg)
same,"Antispasmodic activity CE 100, BaCl2",BaCl2,100 μ g γ 60 ml
same,LD50,DL50 mouse p.o.,970 mg/kg
same,"Antispasmodic activity CE 100, Hist.",Hist.,200 μ g γ 60 ml
CCCCCCCCNC(CC)C(O)c1ccc(SC)cc1 (stereo not shown) [No 18],Protective activity against anoxia,guinea pig atria's,0
same,"Antispasmodic activity CE 100, Ac.chol.",Ac.chol.,200 μ g γ 60 ml
same,Anti-hypertensive activity,[9],0
same,"Antispasmodic activity CE 100, BaCl2",BaCl2,500 μ g γ 60 ml
same,LD50,DL50 mouse p.o.,~3500 mg/kg
same,"Antispasmodic activity CE 100, Hist.",Hist.,200 μ g γ 60 ml
CCCCNC(C)C(O)c1ccc(SC)cc1 (stereo not shown) [No 10],Protective activity against anoxia,guinea pig atria's,+ (increase in survival time of 10 to 20%)
same,"Antispasmodic activity CE 100, Ac.chol.",Ac.chol.,500 μ g γ 60 ml
same,Anti-hypertensive activity,[9],0
same,"Antispasmodic activity CE 100, BaCl2",BaCl2,1000 μ g γ 60 ml
same,LD50,DL50 mouse p.o.,~100 mg/kg
same,"Antispasmodic activity CE 100, Hist.",Hist.,1000 μ g γ 60 ml
CCCCNC(CC)C(O)c1ccc(SC)cc1 (stereo not shown) [No 17],Protective activity against anoxia,guinea pig atria's,0
same,"Antispasmodic activity CE 100, Ac.chol.",Ac.chol.,1000 μ g γ 60 ml
same,Anti-hypertensive activity,[9],+ (reduction of systolic pressure of 10 to 20 mm Hg)
same,"Antispasmodic activity CE 100, BaCl2",BaCl2,1000 μ g γ 60 ml
same,LD50,DL50 mouse p.o.,122 mg/kg
same,"Antispasmodic activity CE 100, Hist.",Hist.,1000 μ g γ 60 ml
